Species: Homo sapiens
Experiment: Selectivity ratio of Ki for human MT1 receptor to Ki for human MT2 receptor

Ratio Ki	SMILES
3.2	COc1ccc2c(I)cn(CCNC(C)=O)c2n1
13.2	COc1ccc2c3c(n(CCNC(C)=O)c2n1)CCCC3
> 20	COc1ccc2c(CN3CCOCC3)cn(CCNC(C)=O)c2n1
0.7	COc1ccc2[nH]cc(CCNC(C)=O)c2n1
0.7	COc1ccc2c(CN3CCCCC3)cn(CCNC(C)=O)c2n1

Second part, the compound before the results:

SMILES	Ratio Ki
COc1ccc2ccn(CCNC(C)=O)c2n1	2.3
COc1ccc2c(C(=O)C(F)(F)F)cn(CCNC(C)=O)c2n1	3
CCC(=O)NCCn1ccc2ccc(OC)nc21	11.8
COc1ccc2c(CN(C)Cc3ccccc3)cn(CCNC(C)=O)c2n1	2.6
CNCc1cn(CCNC(C)=O)c2nc(OC)ccc12	7.6
COc1ccc2c(CN3CCC(C(=O)c4ccc(F)cc4)CC3)cn(CCNC(C)=O)c2n1	1.3
COc1ccc2c(CN3CCN(c4cccc(Cl)c4)CC3)cn(CCNC(C)=O)c2n1	1.3

Target: T1, Melatonin receptor type 1A (Homo sapiens, UniProt P48039)
T1 sequence (P48039 whole entry): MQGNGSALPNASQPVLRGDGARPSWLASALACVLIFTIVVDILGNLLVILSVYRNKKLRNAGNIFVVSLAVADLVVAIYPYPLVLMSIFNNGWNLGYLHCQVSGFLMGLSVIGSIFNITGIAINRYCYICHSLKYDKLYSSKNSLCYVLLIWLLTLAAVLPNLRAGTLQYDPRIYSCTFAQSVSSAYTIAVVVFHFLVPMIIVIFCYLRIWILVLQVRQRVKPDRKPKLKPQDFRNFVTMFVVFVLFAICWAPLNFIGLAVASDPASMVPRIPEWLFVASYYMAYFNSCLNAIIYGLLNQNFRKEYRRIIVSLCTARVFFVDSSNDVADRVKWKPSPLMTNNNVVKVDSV
Experiment: Displacement of 2-[125I]-iodomelatonin from human MT1 receptor expressed in HEK293 cells
Type: cell-based

Ki [nM]	SMILES
> 10000	COc1ccc2c(CN(C)C)cn(CCNC(C)=O)c2n1
16	COc1ccc2c(I)cn(CCNC(C)=O)c2n1
9	COc1ccc2c3c(n(CCNC(C)=O)c2n1)CCCC3
> 10000	COc1ccc2c(CN3CCOCC3)cn(CCNC(C)=O)c2n1
0.2	COc1ccc2[nH]cc(CCNC(C)=O)c2n1
510	COc1ccc2c(CN3CCCCC3)cn(CCNC(C)=O)c2n1

The next lines start with the compound.

SMILES	Ki [nM]
COc1ccc2ccn(CCNC(C)=O)c2n1	1.4
COc1ccc2c(C(=O)C(F)(F)F)cn(CCNC(C)=O)c2n1	91
CCC(=O)NCCn1ccc2ccc(OC)nc21	3.3
COc1ccc2c(CN(C)Cc3ccccc3)cn(CCNC(C)=O)c2n1	10500
CNCc1cn(CCNC(C)=O)c2nc(OC)ccc12	8300
COc1ccc2c(CN3CCC(C(=O)c4ccc(F)cc4)CC3)cn(CCNC(C)=O)c2n1	9490
COc1ccc2c(CN3CCN(c4cccc(Cl)c4)CC3)cn(CCNC(C)=O)c2n1	1210

Target: T2, Melatonin receptor type 1B (Homo sapiens, UniProt P49286)
T2 sequence (P49286 whole entry): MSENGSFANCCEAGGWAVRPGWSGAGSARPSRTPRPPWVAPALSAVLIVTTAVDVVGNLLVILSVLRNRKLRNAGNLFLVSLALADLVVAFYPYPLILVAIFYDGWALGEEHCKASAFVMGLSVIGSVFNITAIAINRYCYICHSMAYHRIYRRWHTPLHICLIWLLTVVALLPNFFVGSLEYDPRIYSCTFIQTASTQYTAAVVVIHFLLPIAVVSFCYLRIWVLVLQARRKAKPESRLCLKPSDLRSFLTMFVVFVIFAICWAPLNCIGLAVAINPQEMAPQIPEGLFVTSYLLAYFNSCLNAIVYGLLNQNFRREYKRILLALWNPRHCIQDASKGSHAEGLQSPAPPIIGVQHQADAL
Experiment: Displacement of 2-[125I]-iodomelatonin from human MT2 receptor expressed in HEK293 cells
Type: cell-based

Ki [nM]	SMILES
> 10000	COc1ccc2c(CN(C)C)cn(CCNC(C)=O)c2n1
5	COc1ccc2c(I)cn(CCNC(C)=O)c2n1
0.68	COc1ccc2c3c(n(CCNC(C)=O)c2n1)CCCC3
550	COc1ccc2c(CN3CCOCC3)cn(CCNC(C)=O)c2n1
0.3	CCCC(=O)NCCn1ccc2ccc(OC)nc21
0.3	COc1ccc2[nH]cc(CCNC(C)=O)c2n1
742	COc1ccc2c(CN3CCCCC3)cn(CCNC(C)=O)c2n1

The remaining lines, values behind:

SMILES	Ki [nM]
COc1ccc2ccn(CCNC(C)=O)c2n1	0.6
COc1ccc2c(C(=O)C(F)(F)F)cn(CCNC(C)=O)c2n1	30
CCC(=O)NCCn1ccc2ccc(OC)nc21	0.28
COc1ccc2c(CN(C)Cc3ccccc3)cn(CCNC(C)=O)c2n1	4010
CNCc1cn(CCNC(C)=O)c2nc(OC)ccc12	1090
COc1ccc2c(CN3CCC(C(=O)c4ccc(F)cc4)CC3)cn(CCNC(C)=O)c2n1	7440
COc1ccc2c(CN3CCN(c4cccc(Cl)c4)CC3)cn(CCNC(C)=O)c2n1	929
COc1cnc2[nH]cc(CCNC(C)=O)c2c1	117

Target: T2, Melatonin receptor type 1B
Experiment: Agonist activity at human MT2 receptor expressed in CHO cells by [35S]GTPgamma binding assay
Type: functional, cell-based

EC50 [nM]	SMILES
11	COc1ccc2c(I)cn(CCNC(C)=O)c2n1
1.3	COc1ccc2c3c(n(CCNC(C)=O)c2n1)CCCC3
0.7	CCCC(=O)NCCn1ccc2ccc(OC)nc21
1.1	COc1ccc2[nH]cc(CCNC(C)=O)c2n1

Continued, compound first:

SMILES	EC50 [nM]
COc1ccc2ccn(CCNC(C)=O)c2n1	2.1
COc1ccc2c(C(=O)C(F)(F)F)cn(CCNC(C)=O)c2n1	10
CCC(=O)NCCn1ccc2ccc(OC)nc21	1.4
COc1cnc2[nH]cc(CCNC(C)=O)c2c1	380

Target: T1, Melatonin receptor type 1A
Experiment: Agonist activity at human MT1 receptor expressed in CHO cells by [35S]GTPgamma binding assay
Type: functional, cell-based

EC50 [nM]	SMILES
32	COc1ccc2c(I)cn(CCNC(C)=O)c2n1
16	COc1ccc2c3c(n(CCNC(C)=O)c2n1)CCCC3
12	COc1ccc2[nH]cc(CCNC(C)=O)c2n1

The remaining lines, values behind:

SMILES	EC50 [nM]
COc1ccc2ccn(CCNC(C)=O)c2n1	4
COc1ccc2c(C(=O)C(F)(F)F)cn(CCNC(C)=O)c2n1	93
CCC(=O)NCCn1ccc2ccc(OC)nc21	5.1

From ChEMBL document CHEMBL1759969 (Bioorg Med Chem Lett, 2011)
